This is an account of results in patent US20220151995A1, “PHARMACEUTICAL COMPOSITION FOR TREATING CANCER AND SUPPRESSING METASTASIS, CONTAINING SULFONAMIDE-BASED COMPOUND AS ACTIVE INGREDIENT” (EXOSTEMTECH CO., LTD, priority 2015, published 2022).

Series [1] has as its system MDA-MB231-CD63-GFP(+) cells. The series can be described thus: Exosome (CD63-GFP) secretion screening of FDA-approved drugs, supernatant fluorescence. Conditions: 24 h, fluorescence 485/538 nm, % of control group, read-out: exosome inhibition rate (relative fluorescence, of control group). In kind it is cell-based. As for the experimental part: Among a total of 1,163 FDA-approved drug libraries, drugs effective in inhibiting exosome secretion of the MDA-MB231 triple negative breast cancer cell line were selected by carrying out screening twice. Sulfisoxazole, Sulfadiazine, Sulfathiazole and Ambrisentan, all of which are ETA receptor antagonists, were selected.
The percentage of inhibition rate of exosome secretion was evaluated for each of the selected ETA receptor antagonists. Briefly, MDA-MB231-CD63-GFP(+) cells were incubated with 30 pM of 1,163 individual FDA-approved drugs for 24 h. The fluorescence of each supernatant was measured at 485 nm (excitation) and 538 nm (emission) using a fluorescence microplate reader. Y-axis indicates the inhibition rate of exosome (CD63-GFP), and X-axis indicates the number of FDA-approved drugs.

The subject of series [2] is MDA-MB231 cells. The series can be described thus: Cancer cell migration, scratch assay (T-scratch). In kind it is cell-based. Conditions: 24 hours, medium containing 2% serum; T-scratch quantification. As for the experimental part:
MDA-MB231 cells were seeded in a 24-well plate at 2×10^5 cells/well, and then incubated for 24 hours for the proliferation to a monolayer. After the incubation for 24 hours, the monolayer was straightly scratched with a yellow tip. The cells were washed with PBS to remove floating cells, and then photographed (0 h). Thereafter, a drug was added to a medium containing 2% serum, and then the cells were treated with the medium, and then incubated for 24 hours (24 h). After 24 hours, the cells were photographed for the same site to compare cell migration. The measurement of cell migration was carried out using T-scratch program.

In series [3] the test system is MDA-MB231 cells. The series can be described thus: Matrigel invasion assay. In kind it is cell-based. Conditions: 25, 50, 100 and 200 μM, 48 hours, compared with the controls. As for the experimental part: A 8[…] insert was placed in a 24-well plate, coated with serum-free medium and Matrigel, and then solidified at 37 for 4 hours. Then, 800µ1 of 10% FBS was added to the lower chamber and 1×10^4 MDA-MB231 cells were added to the upper chamber, followed by treatment with sulfisoxazole or sulfadoxine at 25, 50, 100, and 200µM. After 48 hours, the Matrigel in the insert was removed, followed by washing with PBS, and then the lower chamber was fixed with 60% ethanol, and then stained with crystal violet.

Series [4] has as its system MDA-MB231 cells. The series can be described thus: Cancer cell proliferation, MTT assay. In kind it is cell-based. Conditions: 25, 50, 100 and 200 μM; MTT absorbance at 495 nm; compared with the control. As for the experimental part:
After the 12-hour incubation, the cells were treated with sulfisoxazole and sulfadoxine at 25, 50, 100, and 200µM, and then re-treated with the same drugs […]. Thereafter, the cells were treated with MT tetrazolium reagent for each time, and then incubated for […]. After 4 hours, the cell proliferation effect was investigated by measuring the absorbance at 495 nm of reduced MTT formazan (3-(4,5-dimethylthiazol-2-yl)-2,5-diphenyl-tetrazolium bromide). The docetaxel (10µM), which is an anticancer drug currently in use, was used as a control.

The next series concerns A549. The series can be described thus: Cancer exosome secretion, number of exosomes by Nanosight. In kind it is cell-based. The note with it: SFX 100 μM and 200 μM, one day; compared to control (DMSO). As for the experimental part: After seeding 2×10^6 cells of A549 in T-flask, they were stabilized with growth medium for 24 hours. To isolate cancer exosomes, T-flask was treated with SFX at different concentrations (0, 100, 200 μM), and then lung cancer cells were cultured for one day. After the cell culture medium was collected and filtered, exosomes were separated through ultracentrifugation, and the number of exosomes was determined with Nanosight (FIG. 11).

The next series concerns LLC1 tumor cells. As for the experimental part:
The cancer animal models were prepared on the last day acclimatization. C57BL/6 mice used for the production of LLC1 tumor mouse model were used as experimental animals, and after inoculation of LLC1 tumor cells in the mouse thigh at a concentration of 5×10^5 cells/head, SFX was administered from the time when the tumor volume reached 50 mm^3.
After uniformly mixing the SFX solution prepared for each concentration by vortexing, a sonde for mice was connected to a 1 mL syringe to fill the solution, and 100 μL of the solution was orally administered to each mouse in each group.
Tumor volume was measured daily. The volume of the tumor was measured using a vernier caliper on the major axis and the minor axis, and the height was calculated as ½ the size of the minor axis.
[Tumor volume (mm3)=major axis (mm)×minor axis (mm)×½ of the minor axis]
Mouse body weight was measured every other day from the start of the test, and was measured after oral administration of the drug.

The next series has as its system A549 cells. The series can be described thus: Cancer cell proliferation, WST-1 assay. In kind it is cell-based. The note with it: 100 μM and 200 μM daily, 72 hours; compared to control (DMSO). As for the experimental part:
A549 cells were seeded in a 12-well plate at a concentration of 3×10^4 cells/well and then stabilized with growth medium for 24 hours. To evaluate cancer cell growth inhibition, SFX was treated daily at different concentrations (0, 100, 200 μM). After 72 hours, cell growth rate was determined by WST-1 assay (FIG. 13).
A general note: Formazan colour is commonly taken as a measure of viable cells.

As for `COC(c1ccccc1)(c1ccccc1)[C@H](Oc1nc(C)cc(C)n1)C(=O)O` [ambrisentan, Ambrisentan], in series [1], the activity at 30 pM stood at 101%.

For `Nc1ccc(S(=O)(=O)Nc2ncccn2)cc1` [sulfadiazine, Sulfadiazine], the activity at 30 pM in series [1] amounted to 89.9%.

Regarding `COc1ncnc(NS(=O)(=O)c2ccc(N)cc2)c1OC` [sulfadoxine], in the series with MDA-MB231 cells [2], the “migration of cancer cells” value is on record as “inhibited dependent on the concentration”. The “invasion of cancer cells” value in the series on MDA-MB231 cells [3] is “significantly inhibited”. Moreover, the “proliferation of MDA-MB231 cell lines” value with MDA-MB231 cells [4] was “significantly inhibited”.

In the case of `Nc1ccc(S(=O)(=O)Nc2nccs2)cc1` [sulfathiazole, Sulfathiazole], the activity at 30 pM in series [1] amounted to 93.8%.

For `Cc1noc(NS(=O)(=O)c2ccc(N)cc2)c1C` [sulfisoxazole], the “migration of cancer cells” value in the series with MDA-MB231 cells [2] is recorded as “inhibited dependent on the concentration”. The “level of cancer exosome secretion” value in the series with A549 was “significantly reduced”. Further, the tumor weight result in the series on LLC1 tumor cells (200 and 400 mg/kg orally, end of the experiment, compared to vehicle group) is recorded as “tendency to decrease”. For the same compound, the “mice that died (survival)” value in the series on LLC1 tumor cells (oral SFX administration for each concentration) is “no mice that died”. For the same compound, the “body weight of the animals” value in the series with LLC1 tumor cells (oral SFX administration, measured every other day) was “did not show a significant change”. Moreover, the “invasion of cancer cells” value in the series on MDA-MB231 cells [3] was “significantly inhibited”. In addition, the A549 cell growth result in the series with A549 cells is recorded as “inhibited in a concentration-dependent manner”. In the series with MDA-MB231 cells [4], the “proliferation of MDA-MB231 cell lines” value was “inhibited dependent on the concentration”. The activity at 30 pM in series [1] amounted to 60.8%.
